{"source": "patent US8153787B2", "about": "(priority 2005, dated 2012)", "key": {"HSV-2 (Lyons)": {"test_system": "HSV-2 (Lyons)", "design": "species or system mice", "conditions": "mouse, in vivo, sc"}, "[1]": {"test_system": "Herpes simplex virus-1 (KOS and TK- KOS ACVr)", "assay_type": "cell-based"}, "[2]": {"conditions": "mouse, in vivo"}, "Vaccinia Virus (WR)": {"test_system": "Vaccinia Virus (WR)", "assay_type": "in vivo, mice", "conditions": "after 20 days"}, "HEL cells": {"test_system": "HEL cells", "conditions": "human"}, "Cowpox virus (Brighton)": {"test_system": "Cowpox virus (Brighton)", "design": "species or system mice", "conditions": "mouse, in vivo, sc"}, "MOLT-3 cells": {"test_system": "MOLT-3 cells", "conditions": "human"}, "[3]": {"test_system": "Human Cytomegalovirus (HCMV)", "assay": "microbe, parasite or virus in culture", "assay_type": "cell-based"}, "[4]": {"assay": "Decomposition in aqueous solution (sym-triazine ring opening)", "assay_type": "physicochemical", "conditions": "in words", "text": "The first step is a reversible opening of the sym-triazine ring to the N-formylguanidine derivative which can close back to the cyclic structure. This step occurs in presence of a trialkylammonium buffer, e.g. triethylammonium hydrogenocarbonate (TEAB), triethylammonium hydroxide or triethylammonium acetate. This hydrolytic reaction is slow and reaches equilibrium within several days. It is accompanied by loss of UV-absorption which allows to determine its course.\nThough this reaction is generally controlled by acidobasic catalysis, it could be eventually speeded up (or slowed down) in vivo by the action of enzymes.\nThe reaction course was monitored by measurement of absorption maximum decrease in UV spectrum at λmax 245 nm. For each measurement 10 μl sample of reaction mixture was diluted with water to overall volume 3 ml and absorbance value at 245 nm determined. Equilibrium was reached when no more decrease of absorbance occurred. The reaction mixture was evaporated to dryness, coevaporated with water (5×3 ml) and then with methanol (2×3 ml). The residue in water (3 ml) was applied onto a column of Dowex 50 (Na^+ form, 20 ml) and the column eluted with water. UV absorbing eluate was evaporated and lyophilized to give 105 mg (92%) of a sodium salt of 3a as a colourless amorphous material."}, "HSV-1 (Kos strain)": {"test_system": "HSV-1 (Kos strain)", "assay": "microbe, parasite or virus in culture", "assay_type": "cell-based, Herpes simplex virus type 1", "conditions": "Human alphaherpesvirus 1, HEL"}}, "note": "Like-named read-outs stand apart in the source and are kept apart here.", "data": [{"compound": "Nc1ncn(C[C@@H](CO)OCP(=O)(O)O)c(=O)n1", "note": "[Compound 3, (S)-1-[3-hydroxy-2-(Phosphonomethoxy)propyl]-5-azacytosine]", "values": [{"measurement": "survival rate, HSV-2 (Lyons) model", "setting": "HSV-2 (Lyons)", "result": 100, "unit": "%"}, {"measurement": "activity against Herpes simplex virus-1 (KOS and TK- KOS ACVr) in E6SM cell cultures", "setting": "[1]", "result": "significant activity"}, {"measurement": "mean body weights of the mice", "setting": "[2]", "result": "normal pattern"}, {"measurement": "survival, Vaccinia Virus (WR) mice model", "setting": "Vaccinia Virus (WR)", "result": 100, "unit": "%"}, {"measurement": "Toxicity MCC (microscop)", "setting": "HEL cells", "result": ">100", "unit": "µg/mL"}, {"measurement": "survival, Cowpox virus (Brighton) mice model", "setting": "Cowpox virus (Brighton)", "result": 100, "unit": "%"}, {"measurement": "Toxicity MCC (microscopy), MOLT-3 cells", "setting": "MOLT-3 cells", "result": 16, "unit": "µg/mL"}, {"measurement": "activity against CMV (AD-169 and Davis) in HEL cells", "setting": "[3]", "result": "significant activity"}, {"measurement": "EC50", "setting": "[3]; Human betaherpesvirus 5, AD169, HEL, read-out: EC50 HCMV AD-169 strain (HEL cells)", "result": 0.078, "unit": "µg/mL"}, {"measurement": "EC50", "setting": "[3]; Human betaherpesvirus 5, HEL, read-out: EC50 HCMV Davis strain (HEL cells)", "result": 0.054, "unit": "µg/mL"}, {"measurement": "decomposition in aqueous solution", "setting": "[4]", "result": "slow decomposition"}, {"measurement": "EC50", "setting": "HSV-1 (Kos strain); 2 h, read-out: EC50 HSV-1 (Kos strain), Treatment from 2 h till end of experiment", "result": 0.16, "unit": "µg/mL"}, {"measurement": "EC50", "setting": "HSV-1 (Kos strain); read-out: EC50 HSV-1 (Kos strain), Pretreatment (−16 hours)", "result": 0.25, "unit": "µg/mL"}, {"measurement": "EC50", "setting": "HSV-1 (Kos strain); read-out: EC50 HSV-1 (Kos strain), Treatment 2-4 hours", "result": 1, "unit": "µg/mL"}, {"measurement": "EC50", "setting": "HSV-1 (Kos strain); read-out: EC50 HSV-1 (Kos strain), Treatment 2-6 hours", "result": 0.37, "unit": "µg/mL"}, {"measurement": "EC50", "setting": "HSV-1 (Kos strain); read-out: EC50 HSV-1 (Kos strain), Treatment 2-8 hours", "result": 0.32, "unit": "µg/mL"}]}]}
